Measurements reported in patent US20250228239A1, “MOLECULES HAVING PESTICIDAL UTILITY, AND INTERMEDIATES, COMPOSITIONS, AND PROCESSES, RELATED THERETO” (priority 2024, published 2025).
Where two headings read alike, the source gives them in different places.

What was measured:
Type in all cases: in vivo
[1] = test system: Beet Armyworm (Spodoptera exigua, LAPHEG); assay: Bioassays on Beet Armyworm (BAW), 128-well diet tray assay; conditions: Spodoptera exigua
Outline: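 Test molecule was dissolved in 90:10 acetone-water and applied at 50 μg/cm^2 onto artificial diet in eight wells, then dried. Second instar larvae, one to five per well, were added, and trays were kept vented at 25° C. with a 14:10 photoperiod for five to seven days before mortality was recorded.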

[2] = test system: Cabbage Looper (Trichoplusia ni, TRIPNI); assay: Bioassays on Cabbage Looper (CL), 128-well diet tray assay; conditions: Trichoplusia ni
Outline: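 Activity is mean percent mortality over eight wells of second-instar larvae exposed to diet treated at 50 μg/cm^2 for 5–7 days at 25° C.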

[3] = test system: Yellow Fever Mosquito (Aedes aegypti, AEDSAE); conditions: for YFM rating: Table ABC / ABC-DP rating
Outline: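 Mortality after 3 days at room temperature is the read-out, scored well by well and converted to a rating. Test molecules came from 4000 ppm stocks in DMSO, further diluted in 90:10 water/acetone, and were exposed to roughly 1-day-old larvae suspended in liver-powder water.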

[4] = Table ABC: Biological Results, species BAW, read-out: BAW
[5] = Table ABC: Biological Results, species CL, read-out: CL
[6] = Table ABC: Biological Results, species YFM
[7] = Beet Armyworm, Table ABC / ABC-DP rating, read-out: BAW rating
[8] = Cabbage Looper, Table ABC / ABC-DP rating, read-out: CL rating
[9] = Beet Armyworm, rating class, read-out: BAW
[10] = Cabbage Looper, rating class, read-out: CL
[11] = Yellow Fever Mosquito, rating class

| SMILES | pest or weed control at 50 µg/cm2 [1, 7] [%] | pest or weed control at 50 µg/cm2 [2, 8] [%] | YFM rating ([3]; Yellow Fever Mosquito) | pest or weed control at 50 µg/cm2 [1, 9] [%] | pest or weed control at 50 µg/cm2 [2, 10] [%] | YFM [3, 11] | further results |
| --- | --- | --- | --- | --- | --- | --- | --- |
| CC(C)(C)OC(=O)Nc1c(F)ccc(NC(=O)c2cc(NC(=O)[C@H]3[C@H](c4cc(Cl)cc(C(F)(F)F)c4)C3(Cl)Cl)ccc2Cl)c1F (relative stereo) [F1119, trans-tert-Butyl-(3-(2-chloro-5-(2,2-dichloro-3-(3-chloro-5-(trifluoromethyl)phenyl)cyclopropane-1-carboxamido)benzamido)-2,6-difluorophenyl)carbamate] | – | – | – | – | – | – | pest or weed control at 50 µg/cm2 [1, 4]: 50 to 100%; pest or weed control at 50 µg/cm2 [2, 5]: 50 to 100%; YFM [3, 6]: A (80–100) |
| O=C(CC1(C(F)(F)F)CC1)Nc1c(F)ccc(NC(=O)c2cc(NC(=O)[C@H]3[C@H](c4ccc(F)c(C(F)(F)F)c4)C3(Cl)Cl)ccc2Cl)c1F [F1836, 2-Chloro-5-((1R,3R)-2,2-dichloro-3-(4-fluoro-3-(trifluoromethyl)phenyl)cyclopropane-1-carboxamido)-N-(2,4-difluoro-3-(2-(1-(trifluoromethyl)cyclopropyl)acetamido)phenyl)benzamide] | 50 to 100 | 50 to 100 | A (80–100) | – | – | – | – |
| O=C(NNc1cc(Cl)ccc1Cl)c1cc(NC(=O)[C@H]2[C@H](c3cc(Cl)cc(Cl)c3)C2(Cl)Cl)ccc1Cl (relative stereo) [F2561, trans-2,2-Dichloro-N-(4-chloro-3-(2-(2,5-dichlorophenyl)hydrazine-1-carbonyl)phenyl)-3-(3,5-dichlorophenyl)cyclopropane-1-carboxamide] | 50 to 100 | 50 to 100 | B (More than 0 – Less than 80) | – | – | – | – |
| CC(OCC(F)(F)F)C(=O)Nc1c(F)ccc(NC(=O)c2cc(NC(=O)[C@H]3[C@H](c4ccc(F)c(C(F)(F)F)c4)C3(Cl)Cl)ccc2Cl)c1F (stereo partly drawn) [F1747, 2-Chloro-5-((1R,3R)-2,2-dichloro-3-(4-fluoro-3-(trifluoromethyl)phenyl)cyclopropane-1-carboxamido)-N-(2,4-difluoro-3-(2-(2,2,2-trifluoroethoxy)propanamido)phenyl)benzamide] | – | – | – | 50 to 100 | 50 to 100 | A (80–100) | – |
| Cc1c(N)cccc1NC(=O)c1cc(NC(=O)[C@H]2[C@H](c3ccc(F)c(C(F)(F)F)c3)C2(Cl)Cl)ccc1Cl [F1448, N-(3-Amino-2-methylphenyl)-2-chloro-5-((1R,3R)-2,2-dichloro-3-(4-fluoro-3-(trifluoromethyl)phenyl)cyclopropane-1-carboxamido)benzamide] | – | – | – | 50 to 100 | 50 to 100 | A (80–100) | – |
| O=C(NN=Cc1ccc(F)cc1F)c1cc(NC(=O)[C@H]2[C@H](c3cc(Cl)cc(Cl)c3)C2(Cl)Cl)ccc1Cl (relative stereo) [F3004, trans-2,2-Dichloro-N-(4-chloro-3-(2-(2,4-difluorobenzylidene)hydrazine-1-carbonyl)phenyl)-3-(3,5-dichlorophenyl)cyclopropane-1-carboxamide] | 50 to 100 | 50 to 100 | A (80–100) | – | – | – | mortality at 50 µg/cm2 ([1]; 168 h, second instar larvae, 50 μg/cm^2 of test molecule on artificial diet, 25° C., five to seven days, average of eight wells, read-out: BAW % Control (or Mortality) rating): 50 to 100%; mortality at 50 µg/cm2 ([2]; 168 h, second instar larvae, 50 μg/cm^2 of test molecule on artificial diet, 25° C., five to seven days, average of eight wells, read-out: CL % Control (or Mortality) rating): 50 to 100%; YFM % Control (or Mortality) rating ([3]; about 1 day-old larvae, 4000 ppm master solution diluted with 90:10 water/acetone, 15 μL per well plus 220 μL larval mixture, 3 days, mortality): A (80–100) |
| O=C(Nc1ccc(F)cc1Br)c1cc(NC(=O)[C@H]2[C@H](c3cc(Cl)cc(Cl)c3)C2(Cl)Cl)ccc1Cl (relative stereo) [F1305, trans-N-(2-Bromo-4-fluorophenyl)-2-chloro-5-(2,2-dichloro-3-(3,5-dichlorophenyl)cyclopropane-1-carboxamido)benzamide] | – | – | – | – | – | – | pest or weed control at 50 µg/cm2 [1, 4]: 50 to 100%; pest or weed control at 50 µg/cm2 [2, 5]: 50 to 100%; YFM [3, 6]: A (80–100) |
| CCC1CCC(C(=O)Nc2c(F)ccc(NC(=O)c3cc(NC(=O)[C@H]4[C@H](c5ccc(F)c(C(F)(F)F)c5)C4(Cl)Cl)ccc3Cl)c2F)O1 (stereo partly drawn) [F1626, N-(3-(2-Chloro-5-((1R,3R)-2,2-dichloro-3-(4-fluoro-3-(trifluoromethyl)phenyl)cyclopropane-1-carboxamido)benzamido)-2,6-difluorophenyl)-5-ethyltetrahydrofuran-2-carboxamide] | – | – | – | 50 to 100 | 50 to 100 | A (80–100) | – |
| COCCNc1ccc(NC(=O)c2cc(NC(=O)[C@H]3[C@H](c4cc(Cl)cc(Cl)c4)C3(Cl)Cl)ccc2Cl)c(C)c1 (relative stereo) [F1162, trans-2-Chloro-5-(2,2-dichloro-3-(3,5-dichlorophenyl)cyclopropane-1-carboxamido)-N-(4-((2-methoxyethyl)amino)-2-methylphenyl)benzamide] | – | – | – | – | – | – | pest or weed control at 50 µg/cm2 [1, 4]: 50 to 100%; pest or weed control at 50 µg/cm2 [2, 5]: 50 to 100%; YFM [3, 6]: A (80–100) |
| CC(=O)Nc1c(F)ccc(NC(=O)c2cc(NC(=O)[C@H]3[C@H](c4cc(Cl)c(Cl)c(Cl)c4)C3(Cl)Cl)ccc2F)c1F [F1528, N-(3-Acetamido-2,4-difluorophenyl)-5-((1R,3R)-2,2-dichloro-3-(3,4,5-trichlorophenyl)cyclopropane-1-carboxamido)-2-fluorobenzamide] | – | – | – | 50 to 100 | 50 to 100 | B (More than 0 – Less than 80) | – |
| CCC(=O)Nc1c(F)ccc(NC(=O)c2cc(NC(=O)[C@H]3[C@H](c4cc(Cl)c(Cl)c(Cl)c4)C3(Cl)Cl)ccc2Cl)c1F [F1654, 2-Chloro-5-((1R,3R)-2,2-dichloro-3-(3,4,5-trichlorophenyl)cyclopropane-1-carboxamido)-N-(2,4-difluoro-3-propionamidophenyl)benzamide] | – | – | – | 50 to 100 | 50 to 100 | A (80–100) | – |
| CN(C)CC(=O)NNC(=O)c1cc(NC(=O)[C@H]2[C@H](c3cc(Cl)cc(Cl)c3)C2(Cl)Cl)ccc1Cl (relative stereo) [F2530, trans-2,2-Dichloro-N-(4-chloro-3-(2-(dimethylglycyl)hydrazine-1-carbonyl)phenyl)-3-(3,5-dichlorophenyl)cyclopropane-1-carboxamide] | 50 to 100 | 50 to 100 | A (80–100) | – | – | – | – |
| C=CCC(=O)Nc1c(F)ccc(NC(=O)c2cc(NC(=O)[C@H]3[C@H](c4ccc(F)c(Cl)c4)C3(Cl)Cl)ccc2Cl)c1F [F1876, N-(3-(But-3-enamido)-2,4-difluorophenyl)-2-chloro-5-((1R,3R)-2,2-dichloro-3-(3-chloro-4-fluorophenyl)cyclopropane-1-carboxamido)benzamide] | 50 to 100 | 50 to 100 | A (80–100) | – | – | – | – |
| CN(C(=O)C(F)F)c1c(F)ccc(NC(=O)c2cc(NC(=O)[C@H]3[C@H](c4ccc(Cl)c(Cl)c4)C3(Cl)Cl)ccc2Cl)c1F [F1271, 2-Chloro-5-((1R,3R)-2,2-dichloro-3-(3,4-dichlorophenyl)cyclopropane-1-carboxamido)-N-(3-(2,2-difluoro-N-methylacetamido)-2,4-difluorophenyl)benzamide] | – | – | – | – | – | – | pest or weed control at 50 µg/cm2 [1, 4]: 50 to 100%; pest or weed control at 50 µg/cm2 [2, 5]: 50 to 100%; YFM [3, 6]: A (80–100) |
| O=C1CCC(C(=O)Nc2c(F)ccc(NC(=O)c3cc(NC(=O)[C@H]4[C@H](c5ccc(F)c(C(F)(F)F)c5)C4(Cl)Cl)ccc3Cl)c2F)C1 (stereo partly drawn) [F1488, 2-Chloro-5-((1R,3R)-2,2-dichloro-3-(4-fluoro-3-(trifluoromethyl)phenyl)cyclopropane-1-carboxamido)-N-(2,4-difluoro-3-(3-oxocyclopentane-1-carboxamido)phenyl)benzamide] | – | – | – | 50 to 100 | 50 to 100 | A (80–100) | – |
